One test concerns the target IRAK4 (Homo sapiens (Human), UniProt Q9NWZ3). Kind of test: IRAK4 Inhibition Assay. The conditions noted are these: IRAK4 Inhibition Assay; ATP 500 μM; read-out: IRAK4 IC50. Format: biochemical. Summed up:
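IRAK4 combined with fluorescent substrate and compounds, reacted 60 min at room temperature, stopped with 35 mM EDTA. Substrate and phosphorylated product separated electrophoretically on a Caliper LabChip 3000 mobility-shift reader.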

Test [1] has as its system TLR2 induced IL-6 in peripheral blood mononuclear cells (PBMCs). In words: PBMC TLR2 Induced IL-6 Assay. As to conditions: Homo sapiens, PBMC, PBMC TLR2 Induced IL-6 Assay, lipoteichoic acid stimulation, IL-6 by ELISA; for EC50: read-out: Cell EC50; for IC50: read-out: Cell IC50. Format: cell-based, human. In a few lines:
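Lipoteichoic acid at 10 µg/ml served as TLR2 stimulus for 5 hours, following a 30-minute compound pretreatment at 37° C. Cells were Ficoll-isolated human PBMCs, 250000 cells/well, cultured in RPMI plus 10% heat-inactivated FCS.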

Sequence of IRAK4 (Q9NWZ3 whole entry, species assumed): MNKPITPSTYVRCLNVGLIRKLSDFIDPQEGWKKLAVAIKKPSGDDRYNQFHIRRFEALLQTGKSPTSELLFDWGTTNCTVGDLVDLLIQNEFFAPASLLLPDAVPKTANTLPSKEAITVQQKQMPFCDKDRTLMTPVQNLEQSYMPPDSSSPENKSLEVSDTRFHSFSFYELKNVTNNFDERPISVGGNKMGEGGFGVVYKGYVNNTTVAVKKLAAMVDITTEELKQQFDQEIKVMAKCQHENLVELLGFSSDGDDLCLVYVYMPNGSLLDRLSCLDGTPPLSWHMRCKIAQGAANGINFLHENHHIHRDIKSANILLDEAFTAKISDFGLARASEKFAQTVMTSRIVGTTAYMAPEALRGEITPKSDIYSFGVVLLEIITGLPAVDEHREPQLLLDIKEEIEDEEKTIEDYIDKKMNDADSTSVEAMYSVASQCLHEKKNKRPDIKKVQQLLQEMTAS

In the case of `CC(C)Nc1cc(-n2ncc3cc(Br)cnc32)ncc1C(=O)NC[C@@H](F)C(C)(C)O` [Example 158, (R)-6-(5-Bromo-1H-pyrazolo[3,4-b]pyridin-1-yl)-N-(2-fluoro-3-hydroxy-3-methylbutyl)-4-(isopropylamino)nicotinamide], at IRAK4, the IC50 (usually the midpoint of a concentration-inhibition curve) stood at 4.2 nM. Besides, in test [1], the concentration giving a half-maximal response (EC50) (commonly the midpoint of the concentration-response curve) came to 127 nM.
The matching figures for `CC(C)(O)[C@H](F)CNC(=O)c1cnc(-n2ncc3cc(C#N)cnc32)cc1N[C@H]1CC[C@H](O)CC1` [Example 159, 6-(5-cyano-1H-pyrazolo[3,4-b]pyridin-1-yl)-N—((R)-2-fluoro-3-hydroxy-3-methylbutyl)-4-(((trans)-4-hydroxycyclohexyl)amino)nicotinamide]: 2.4 nM and 112 nM.
In the same order, the values of `CNC(=O)[C@H]1CC[C@H](NC(=O)c2cnc(-n3ncc4cc(C#N)cnc43)cc2NC(C)C)CC1` [Example 160, 6-(5-cyano-1H-pyrazolo[3,4-b]pyridin-1-yl)-4-(isopropylamino)-N-((trans)-4-(methylcarbamoyl)cyclohexyl)nicotinamide] are 5.8 nM and 176 nM.
Turning to `CC(C)Nc1cc(-n2ncc3cc(C#N)cnc32)ncc1C(=O)N[C@H]1CC[C@H](S(C)(=O)=O)CC1` [Example 161, 6-(5-cyano-1H-pyrazolo[3,4-b]pyridin-1-yl)-4-(isopropylamino)-N-((trans)-4-(methylsulfonyl)cyclohexyl)nicotinamide], the IC50 on IRAK4 amounted to 6.8 nM. In addition, the EC50 in test [1] is 253 nM.
Turning to `[2H]C([2H])([2H])NC(=O)[C@H]1CC[C@H](NC(=O)c2cnc(-n3ncc4cc(C#N)cnc43)cc2NC(C)C)CC1` [Example 162, 6-(5-cyano-1H-pyrazolo[3,4-b]pyridin-1-yl)-4-(isopropylamino)-N-((trans)-4-((^2H3)methylcarbamoyl)cyclohexyl)nicotinamide], at IRAK4, the IC50 came out at 3.8 nM. The EC50 in test [1] is 129 nM.
In the same order, the values of `CC(C)(O)[C@H](F)CNC(=O)c1cnc(-n2ncc3cc(C#N)cnc32)cc1NC1CCC(F)CC1` (stereo partly drawn) [Example 163, (R)-6-(5-cyano-1H-pyrazolo[3,4-b]pyridin-1-yl)-N-(2-fluoro-3-hydroxy-3-methylbutyl)-4-((4-fluorocyclohexyl)amino)nicotinamide] are 3 nM and 81 nM.
The matching figures for `CC(=O)N[C@H]1CC[C@H](NC(=O)c2cnc(-n3ncc4cc(C#N)cnc43)cc2NC(C)C)CC1` [Example 164, N-((trans)-4-acetamidocyclohexyl)-6-(5-cyano-1H-pyrazolo[3,4-b]pyridin-1-yl)-4-(isopropylamino) nicotinamide]: 3.5 nM and 299 nM.
The matching figures for `CC(C)Nc1cc(-n2ncc3cc(C#N)cnc32)ncc1C(=O)NC1CCc2nc(N)sc2C1` (stereo not drawn) [Example 165, N-(2-amino-4,5,6,7-tetrahydrobenzo[d]thiazol-6-yl)-6-(5-cyano-1H-pyrazolo[3,4-b]pyridin-1-yl)-4-(isopropylamino)nicotinamide]: 9.1 nM and 172 nM.
Take `CC(C)Nc1cc(-n2ncc3cc(C#N)cnc32)ncc1C(=O)N[C@H]1CC[C@H](NS(C)(=O)=O)CC1` [Example 166, 6-(5-cyano-1H-pyrazolo[3,4-b]pyridin-1-yl)-4-(isopropylamino)-N-((trans)-4-(methylsulfonamido)cyclohexyl)nicotinamide]: the IC50 on IRAK4 turned out to be 4.6 nM. In test [1], the concentration giving a half-maximal response (EC50) came out at 192 nM.
On to `CC(C)Nc1cc(-n2ncc3cc(C#N)cnc32)ncc1C(=O)NCC(F)(F)C(C)(C)O` [Example 167, 6-(5-Cyano-1H-pyrazolo[3,4-b]pyridin-1-yl)-N-(2,2-difluoro-3-hydroxy-3-methylbutyl)-4-(isopropylamino)nicotinamide], for which the IC50 on IRAK4 worked out at 10.5 nM. For the same compound, in test [1], the EC50 amounted to 171 nM.
Consider `CC(C)Nc1cc(-n2ccc(-c3ccnnc3)n2)ncc1C(=O)NC[C@@H](F)C(C)(C)O` [Example 168, (R)—N-(2-Fluoro-3-hydroxy-3-methylbutyl)-4-(isopropylamino)-6-(3-(pyridazin-4-yl)-1H-pyrazol-1-yl)nicotinamide], for which the half-maximal inhibitory concentration (IC50) on IRAK4 was 13.1 nM. For the same compound, the EC50 in test [1] is 305 nM.
In the same order, the values of `CC(C)(O)[C@H](F)CNC(=O)c1cnc(-n2ncc3cc(C#N)cnc32)cc1NCC(F)(F)C(C)(C)O` [Example 169, (R)-6-(5-Cyano-1H-pyrazolo[3,4-b]pyridin-1-yl)-4-((2,2-difluoro-3-hydroxy-3-methylbutyl)amino)-N-(2-fluoro-3-hydroxy-3-methylbutyl)nicotinamide] are 3.3 nM and 204 nM.
With `CC(C)Nc1cc(-n2cnc3cnc(N)nc32)ncc1C(=O)NC[C@@H](F)C(C)(C)O` [Example 171, (R)-6-(2-Amino-9H-purin-9-yl)-N-(2-fluoro-3-hydroxy-3-methylbutyl)-4-(isopropylamino)nicotinamide], at IRAK4, the IC50 amounted to 3.7 nM. In addition, in test [1], the EC50 is 208 nM and the IC50 worked out at 587 nM.
For the compound `CC(C)Nc1cc(-n2cnc3cnc(NCCO)nc32)ncc1C(=O)NC[C@@H](F)C(C)(C)O` [Example 172, (R)—N-(2-Fluoro-3-hydroxy-3-methylbutyl)-6-(2-((2-hydroxyethyl)amino)-9H-purin-9-yl)-4-(isopropylamino)nicotinamide], the IC50 was found to be 2.5 nM on IRAK4 and 10000 nM in test [1].
For the compound `CC(C)Nc1cc(-n2ccc3cc(C#N)cnc32)ncc1C(=O)N[C@H]1CC[C@](F)(c2ccnn2C)CC1` [Example 174, 6-(5-Cyano-1H-pyrrolo[2,3-b]pyridin-1-yl)-N-((1s,4s)-4-fluoro-4-(1-methyl-1H-pyrazol-5-yl)cyclohexyl)-4-(isopropylamino)nicotinamide], the IC50 at IRAK4 came to 3.3 nM. Further, the EC50 in test [1] came out at 182 nM.
The matching figures for `CC(C)Nc1cc(-n2ccc3cc(C#N)cnc32)ncc1C(=O)N[C@H]1CC[C@](O)(c2nccs2)CC1` [Example 175, 6-(5-cyano-1H-pyrrolo[2,3-b]pyridin-1-yl)-N-((1s,4s)-4-hydroxy-4-(thiazol-2-yl)cyclohexyl)-4-(isopropylamino)nicotinamide]: 5 nM and 113 nM.
Turning to `CC(C)Nc1cc(-n2ccc3cc(C#N)cnc32)ncc1C(=O)N[C@H]1CC[C@](O)(c2nccn2C)CC1` [Example 176, 6-(5-cyano-1H-pyrrolo[2,3-b]pyridin-1-yl)-N-((1 s,4s)-4-hydroxy-4-(1-methyl-1H-imidazol-2-yl)cyclohexyl)-4-(isopropylamino) nicotinamide], the IC50 on IRAK4 was 6.4 nM. Also, the EC50 in test [1] stood at 476 nM.
As for `CC(C)Nc1cc(-n2ccc3cc(C#N)cnc32)ncc1C(=O)N[C@H]1CC[C@](O)(c2cccnc2)CC1` [Example 177, 6-(5-cyano-1H-pyrrolo[2,3-b]pyridin-1-yl)-N-((1s,4s)-4-hydroxy-4-(pyridin-3-yl)cyclohexyl)-4-(isopropylamino)nicotinamide], the half-maximal inhibitory concentration (IC50) on IRAK4 came to 3.6 nM. Besides, the EC50 in test [1] was found to be 352 nM.
In the same order, the values of `CC(C)Nc1cc(-n2ccc3cc(C#N)cnc32)ncc1C(=O)N[C@H]1CC[C@](O)(c2ccccn2)CC1` [Example 178, 6-(5-cyano-1H-pyrrolo[2,3-b]pyridin-1-yl)-N-((1s,4s)-4-hydroxy-4-(pyridin-2-yl)cyclohexyl)-4-(isopropylamino)nicotinamide] are 3.7 nM and 100 nM.

The values are drawn from patent US9169252B2 (BRISTOL-MYERS SQUIBB COMPANY, priority 2014, dated 2015).
